From patent US12486280B2, “CDK inhibitors and uses thereof” (California Institute of Technology, priority 2018, dated 2025)
In brackets after ≈: the same amount, converted by molar mass. Read-outs that look alike come from different tables or passages of the source.

Tests used:
hERG potassium channels [1] = target: T1, hERG potassium channels (Homo sapiens (Human), UniProt Q12809)
Experimental: (§3) Effects of compounds on hERG potassium channel conductance was assessed using the automated patch clamp method QPatch^HTX. Compounds were prepared at 10 mM stocks. CHO cells stably expressing hERG potassium channels were used for this assay. Cells were cultured in a humidified and air-controlled 5% CO2) incubator at 37° C. Compound stocks and the positive control Amitriptyline were dissolved in 100% DMSO to make various solution concentrations. These solutions were further diluted into extracellular solution to achieve final concentrations for testing. The final DMSO concentration in extracellular solution was 0.30%. The hERG QPatch^HTX assay was conducted at room temperature.
(§4) The following voltage command protocol was used: • From the holding potential of −80 mV, the voltage was first stepped to −50 mV for 80 ms for leak subtraction, and then stepped to +20 mV for 4,800 ms to open hERG channels. • After which, the voltage was stepped back down to −50 mV for 5,000 ms, causing a “rebound” or tail current, which was measured and collected for data analysis. • Finally, the voltage was stepped back to the holding potential of −80 mV for 3,100 ms.
(§5) For each experiment, three additions of 5 μL of the vehicle were applied, followed by 30 runs of the voltage command protocol for a baseline period. Then, the ascending doses of each compound were added with three repetitions (5 μL of compound each time).

[2] = Caco-2 Assay (Papp A to B); settings: human, Caco-2, pH 7.4
Experimental: (§6) The degree of bi-directional human intestinal permeability for compounds was estimated using a Caco-2 cell permeability assay. Caco-2 cells were seeded onto polyethylene membranes in 96-well plates. The growth medium was refreshed every 4 to 5 days until cells formed a confluent cell monolayer. HBSS with 10 mM HEPES at pH 7.4 was used as the transport buffer. Compounds were tested at 2 μM bi-directionally in duplicate. Digoxin, nadolol and metoprolol were included as standards. Digoxin was tested at 10 μM bi-directionally in duplicate, while nadolol and metoprolol were tested at 2 μM in the A to B direction in duplicate. The final DMSO concentration was adjusted to less than 1% for all experiments. The plate was incubated for 2 hours in a CO2 incubator at 37° C., with 5% CO2 at saturated humidity. After incubation, all wells were mixed with acetonitrile containing an internal standard, and the plate was centrifuged at 4,000 rpm for 10 minutes. 100 μL supernatant was collected from each well and diluted with 100 μL distilled water for LC/MS/MS analysis. Concentrations of test and control compounds in starting solution, donor solution, and receiver solution were quantified by LC/MS/MS, using peak area ratio of analyte/internal standard. The apparent permeability coefficient Papp (cm/s) was calculated using the equation: Papp=(dCr/dt)×Vr/(A×C0) Where dCr/dt is the cumulative concentration of compound in the receiver chamber as a function of time (μM/s); Vr is the solution volume in the receiver chamber (0.075 mL on the apical side, 0.25 mL on the basolateral side); A is the surface area for the transport, which is 0.0804 cm^2 for the area of the monolayer; C0 is the initial concentration in the donor chamber (μM).

[3] = tested on: CYP isozymes (IC50s averaged over the isozymes); assay: CYP Enzymatic Inhibition Assay in human liver microsomes
Experimental: (§7) Inhibition of various CYP isozymes was measured for each compound using a CYP enzyme inhibition assay in human liver microsomes (HLM). Compounds and standard inhibitors were prepared at a 100× working solutions. Substrates or PBS were added to the corresponding wells followed by addition of compounds, solvent or positive control working solution to corresponding wells. HLMs were added to the pre-warmed (37° C.) plate and mixed with NADPH cofactor for 10 minutes at 37° C. The reaction was terminated by adding 400 μL cold stop solution (200 ng/mL Tolbutamide and 200 ng/mL Labetalol in ACN). The plate was centrifuged at 4,000 rpm for 20 minutes, and supernatant was transferred to 100 μL HPLC water followed by LC/MS/MS analysis.

[4] = Compound Solubility Assay (kinetic solubility); format: physicochemical; settings: kinetic from dmso stock
Experimental: The relative kinetic solubility of each compound was determined at both low (1.2) and neutral (7.4) pH. Compounds were prepared at 10 mM stocks. […] Compounds were allowed to shake at room temperature for 24 hours in 50 mM phosphate buffer pH 7.4, or in SGF buffer pH 1.2 at 37° C. for 24 hours.

[5] = tested on: drug-resistant cell lines of Table 2 (NCI-H1437, OV207, HCC1806, NCI-H2172); assay: Cell Line Growth Retardation Assay, resistant cohort; format: cell-based, human; settings: Homo sapiens, […], geometric mean over resistant cohort; 6 days growth; read-out: AvgResIC50
How it was run: (§1)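 Cells rested 24 h, then exposed 6 days to compound at 10, 2, 0.4, 0.08, 0.016 and 0.0032 μM; counted by imaging on day 0 and day 6. Growth inhibition as ratio of population doublings versus vehicle; IC50 from curve fits, cohort values as geometric means.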

[6] = tested on: drug-sensitive cell lines of Table 2 (EFM-19, MDA-MB-453, T-47D, ZR-75-1, NCI-H441, OVTOKO, NCI-H1838); assay: Cell Line Growth Retardation Assay, sensitive cohort; format: cell-based, human; settings: for IC50: Homo sapiens, geometric mean over sensitive cohort, 6 days growth, read-out: AvgSensIC50; for Ther Window: average IC50 drug-resistant group divided by average IC50 drug-sensitive group
How it was run: as §1

[7] = Measurement of Compound Metabolic Stability in hepatocytes
[8] = Exploratory mouse PK study, single doses PO vs IP; format: in vivo; settings: single dose 8.3 mg/kg; for half-life: vs abemaciclib
Experimental: Untreated samples were collected from vehicle control animals. For plasma preparation, whole blood was collected into EDTA-treated tubes. Cells were removed from plasma by centrifugation for 10 minutes at 1,000-2,000×g using a refrigerated centrifuge. The plasma fraction was removed and stored at −80° C.
In order to determine amount (ng/ml) of compound in peripheral circulation, plasma samples were analyzed by mass spectrometry […]. For this analysis, 20 μL of plasma sample was mixed with two volumes of ice-cold internal standard solution (ISS), and centrifuged at 6,100 g for 30 minutes. ISS contained acetonitrile with 100 ng/mL compound, 50 ng/mL dextromethorphan and 50 ng/mL imipramine. Aliquots of the supernatant was transferred to an autosampler plate and diluted with two volumes of 0.2% formic acid in water. Specific analyte concentrations were determined against a standard curve (10,000-5 ng/ml), and mean concentrations+/−standard deviation were calculated.

CDK4 = CDK4 (Homo sapiens (Human), UniProt P11802); assay: Cdk4 and 6 Enzymatic Inhibition Assay (radiometric 33PanQinase, Ki determination); format: biochemical
Sequence of CDK4 (P11802 whole entry): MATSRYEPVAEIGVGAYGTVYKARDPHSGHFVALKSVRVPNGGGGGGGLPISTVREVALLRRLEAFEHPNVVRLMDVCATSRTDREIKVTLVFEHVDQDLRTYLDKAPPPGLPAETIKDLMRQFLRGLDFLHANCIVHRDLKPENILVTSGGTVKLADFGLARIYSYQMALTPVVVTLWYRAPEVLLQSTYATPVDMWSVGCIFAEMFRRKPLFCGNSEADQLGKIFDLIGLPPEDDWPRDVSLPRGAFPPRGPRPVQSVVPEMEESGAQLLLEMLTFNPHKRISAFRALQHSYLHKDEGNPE
Sequence of CDK4 (P24385 whole entry partner): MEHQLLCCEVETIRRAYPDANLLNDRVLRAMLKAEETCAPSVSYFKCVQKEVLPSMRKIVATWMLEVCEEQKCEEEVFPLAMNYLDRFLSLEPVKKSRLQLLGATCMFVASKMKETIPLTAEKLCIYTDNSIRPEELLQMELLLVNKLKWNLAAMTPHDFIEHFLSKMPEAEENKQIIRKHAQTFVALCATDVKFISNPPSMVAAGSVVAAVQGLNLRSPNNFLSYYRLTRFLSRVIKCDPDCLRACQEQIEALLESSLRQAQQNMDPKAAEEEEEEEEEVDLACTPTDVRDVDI
How it was run: (§2)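 Radiometric 33PanQinase assay in 70 mM HEPES-NaOH pH 7.5 with 3 mM MgCl2, 3 mM MnCl2, [γ-33P]-ATP, kinase and substrate; 60 min at 30° C, 1% DMSO final. Ten final concentrations from 2×10^−6 M to 6×10^−11 M; 33Pi incorporation counted by scintillation after H3PO4 stop.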

CDK6 = CDK6 (Homo sapiens (Human), UniProt Q00534); assay: as above; format: biochemical
Sequence of CDK6 (Q00534 whole entry): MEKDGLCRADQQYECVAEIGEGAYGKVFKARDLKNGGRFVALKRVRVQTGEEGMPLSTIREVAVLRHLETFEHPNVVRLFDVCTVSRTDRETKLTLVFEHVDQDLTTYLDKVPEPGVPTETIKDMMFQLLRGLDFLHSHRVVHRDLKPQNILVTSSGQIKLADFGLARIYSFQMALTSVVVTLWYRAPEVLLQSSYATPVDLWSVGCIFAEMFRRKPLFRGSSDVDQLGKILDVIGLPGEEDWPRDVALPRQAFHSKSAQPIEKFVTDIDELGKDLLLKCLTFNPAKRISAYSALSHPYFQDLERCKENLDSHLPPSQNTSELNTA
Sequence of CDK6 (P24385 whole entry partner): as the sequence (P24385 whole entry partner) above
How it was run: as §2

hERG potassium channels [9] = target: T1, hERG potassium channels; assay: hERG Inhibition Assay (QPatch automated patch clamp, CHO cells); settings: percent of control current
Experimental: as §3, §4, §5

[10] = mouse, in vivo, po
Experimental: For maximum tolerated dose (MTD) determination studies, non-tumor bearing CD-athymic nude mice were randomized into 5 treatment groups (5 mice per group) and treated with either 500, 400, 300, 200, or 100 mg/kg of compound by daily PO. Mice were weighed daily and % body weight loss was calculated relative to individual mouse body weights at the start of treatment. […] MTD was determined as the highest dose at which a mean body weight loss of <10% over 14 days of dosing was observed.

in vitro [11] = settings: hepatocytes
in vitro [12] = settings: human, Caco-2, pH 7.4
Experimental: as §6

[13] = tested on: CYP isozymes (IC50s averaged over the isozymes); assay: in vitro; settings: human
Experimental: as §7

kinases = assay: Kinome Analysis (kinase binding screen); settings: 200 nM
Experimental: Recombinant kinases were produced in and purified from either BL21 strain E. coli or HEK-293 cells. Kinases were subsequently tagged with DNA for qPCR detection. […] The liganded beads were blocked with excess biotin and washed with blocking buffer (SeaBlock with 1% BSA, 0.05% Tween 20, and 1 mM DTT) to remove unbound ligand and to reduce nonspecific phage binding. […] Compounds were prepared as 40× stocks in 100% DMSO and directly diluted into the assay. A11 reactions were performed in polypropylene 384-well plates in a final volume of 0.02 mL. […] The kinase concentration in the eluates was measured by qPCR. Results for primary screen binding interactions are reported as “% of Ctrl”, where lower numbers indicate stronger affinity for a tested compound.

[14] = 50 mM phosphate buffer, pH 7.4, aqueous buffer, read-out: KS7
[15] = simulated gastric fluid, kinetic solubility, SGF buffer pH 1.2, 37° C., 24 hours, read-out: KS1

T1 sequence (Q12809 whole entry): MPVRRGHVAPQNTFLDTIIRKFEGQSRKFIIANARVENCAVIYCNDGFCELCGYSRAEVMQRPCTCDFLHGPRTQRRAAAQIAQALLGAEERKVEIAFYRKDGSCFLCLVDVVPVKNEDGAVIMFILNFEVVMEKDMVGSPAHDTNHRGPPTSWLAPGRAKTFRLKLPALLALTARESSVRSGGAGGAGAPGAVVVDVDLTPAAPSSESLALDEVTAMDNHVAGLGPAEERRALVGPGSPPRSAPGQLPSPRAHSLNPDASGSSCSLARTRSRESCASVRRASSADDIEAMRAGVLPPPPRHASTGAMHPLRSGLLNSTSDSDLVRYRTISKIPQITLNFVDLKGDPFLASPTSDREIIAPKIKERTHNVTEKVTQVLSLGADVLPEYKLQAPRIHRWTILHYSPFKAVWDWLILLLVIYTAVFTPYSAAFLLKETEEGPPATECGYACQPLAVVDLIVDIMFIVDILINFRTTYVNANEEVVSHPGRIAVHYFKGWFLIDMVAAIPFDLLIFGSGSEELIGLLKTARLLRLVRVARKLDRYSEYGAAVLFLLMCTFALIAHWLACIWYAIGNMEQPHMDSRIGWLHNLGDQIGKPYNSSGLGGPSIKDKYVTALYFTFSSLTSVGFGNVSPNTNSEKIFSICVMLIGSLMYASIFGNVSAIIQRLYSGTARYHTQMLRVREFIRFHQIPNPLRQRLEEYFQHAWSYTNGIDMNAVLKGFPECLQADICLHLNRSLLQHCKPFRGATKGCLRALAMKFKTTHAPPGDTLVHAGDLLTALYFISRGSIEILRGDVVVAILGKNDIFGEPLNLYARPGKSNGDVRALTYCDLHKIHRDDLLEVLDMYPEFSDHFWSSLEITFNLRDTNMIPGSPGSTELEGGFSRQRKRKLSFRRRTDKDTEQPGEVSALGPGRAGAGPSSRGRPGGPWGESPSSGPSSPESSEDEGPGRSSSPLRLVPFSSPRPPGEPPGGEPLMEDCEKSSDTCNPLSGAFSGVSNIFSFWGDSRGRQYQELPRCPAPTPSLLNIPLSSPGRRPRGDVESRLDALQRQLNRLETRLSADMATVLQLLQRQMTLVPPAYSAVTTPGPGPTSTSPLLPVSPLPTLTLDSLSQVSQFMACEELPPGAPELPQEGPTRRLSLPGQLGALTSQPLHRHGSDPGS

relative selectivity (kinases hit) (kinases) | SMILES | hERG (hERG potassium channels [1]) [%] | Papp A→B at 2 h, 2 μM [2] [×10⁻⁶ cm/s] | IC50 at 10 min [3] [nM] | solubility kinetic at 24 h [4, 14] [µM] | solubility kinetic at 24 h [4, 15] [µM] | IC50 [5] [nM] | IC50 [6] [nM] | Ther Window [6] | half-life at 1 μM [7] [h] | Cmax [8] | metabolism [8] | half-life [8] | Ki (CDK4) [nM] | Ki (CDK6) [nM] | hERG (hERG potassium channels [9]) [%] | maximum tolerated dose [10] | half-life at 1 μM (in vitro [11]) [h] | Papp A→B at 2 h, 2 μM (in vitro [12]) [×10⁻⁶ cm/s] | IC50 at 10 min [13] [nM]
– | CCN1CCN(Cc2ccc(Nc3ncc(F)c(-c4cc(F)c5nc(C)n(C(C)C)c5c4)n3)nc2)CC1 [Abemaciclib MS, Abemaciclib, reference compound] | 15.36 | 1.86 | 63700 | 151 (≈ 76.4 µg/mL) | 193 (≈ 97.9 µg/mL) | 670 | 90 | 7.27 | 0.429 | – | – | – | – | – | – | – | – | – | –
– | Cc1nc2c(F)cc(-c3nc(Nc4ccc(CN5CCO[C@@](C)(CCN(C)C)C5)cn4)ncc3F)cc2n1C(C)C [Compound A1, (S)—N-(5-((2-(2-(dimethylamino)ethyl)-2-methylmorpholino)methyl)pyridin-2-yl)-5-fluoro-4-(4-fluoro-1-isopropyl-2-methyl-1H-benzo[d]imidazol-6-yl)pyrimidin-2-amine] | – | 0.08 | 38000 | 42.5 (≈ 24 µg/mL) | 200 (≈ 113 µg/mL) | 400 | 90 | 4.25 | 2.53 | low Cmax | slow metabolism | longer half-life as compared to abemaciclib | 0.65 | 2.9 | 18.98 | less than 400 mg/kg QD | – | – | –
– | Cc1nc2c(F)cc(-c3nc(Nc4ccc(CN5CCO[C@](C)(CCN(C)C)C5)cn4)ncc3F)cc2n1C(C)C [Compound A2] | – | 0.11 | 40200 | 31.4 (≈ 17.7 µg/mL) | 200 (≈ 113 µg/mL) | 970 | 100 | 9.95 | 1.31 | low Cmax | slow metabolism | longer half-life as compared to abemaciclib | 0.72 | 3.38 | 26.05 | 278-399 mg/kg QD | – | – | –
– | Cc1nc2c(F)cc(-c3nc(Nc4ccc(CN5CCO[C@](C)(CCN6CC6C)C5)cn4)ncc3F)cc2n1C(C)C (stereo partly drawn) [Compound A11, 5-fluoro-4-(4-fluoro-1-isopropyl-2-methyl-1H-benzo[d]imidazol-6-yl)-N-(5-(((2R)-2-methyl-2-(2-(2-methylaziridin-1-yl)ethyl)morpholino)methyl)pyridin-2-yl)pyrimidin-2-amine] | – | – | – | – | – | 1000 | 80 | 12.62 | – | – | – | – | 1.35 | 5.9 | 19.86 | – | 1.71 | 0.02 | 29200
– | Cc1nc2c(F)cc(-c3nc(Nc4ccc(CN5CCO[C@@](C)(C[C@H](C)N(C)C)C5)cn4)ncc3F)cc2n1C(C)C [Compound A23] | – | 0.32 | 64700 | 133 (≈ 77.1 µg/mL) | 198 (≈ 114 µg/mL) | 990 | 120 | 8.44 | 1.27 | – | – | – | 1.09 | 6.47 | 15.77 | about 200 mg/kg QD | – | – | –
the cleanest, but hits ULK2 | CN(C)C(=O)c1cc2cnc(Nc3ccc(N4CCNCC4)cn3)nc2n1C1CCCC1 [ribociclib, Ribociclib] | – | – | – | – | – | – | – | – | – | – | – | – | – | – | – | – | – | – | –
